How the values were obtained:
[1] = tested on: sensory neuronal apoptosis; assay: Apoptosis in L4 and L5 dorsal root ganglia after chronic constriction injury (CCI), Hoechst 33342 staining; assay type: in vivo, rat; settings: for number of neurones undergoing apoptosis (FIG. 2): CCI rats, 10 mg/kg, time points day 7, 21 and 30, vs vehicle treated animals; for sensory neuronal apoptosis / glial apoptosis: adult male CCI rats; for sensory neuronal apoptosis: 10 mg/kg dosed day 12 to day 25, at day 30 post surgery; for glial apoptosis: 10 mg/kg dosed day 12 to day 25, results not shown
Method: Adult male random hooded rats were either chronic constriction injury (CCI) or sham operated at day 0. Dosing with vehicle, 4030W92 (10 mg/kg) or 4082W92 (10 mg/kg) was from day 12 to day 25. At time points 7, 14, 21, 27 and 30 days post surgery animals (n=3 per group except for naives) were sacrificed by exsanguination after behavioural testing as described below. Naive animals were all sacrificed 30 days post surgery. L4 and L5 dorsal root ganglias were removed and placed in a freezing medium for sectioning. Sections (14 μm) were cut using a freezing cryostat (Leica) and placed on poly (L) lysine coated slides. These were post-fixed in 4% paraformaldehyde (Sigma) for 20 minutes, dehydrated through alcohol and kept at −80° until required. On the day of staining, the sections were rehydrated through alcohol and placed in phosphate buffered saline (PBS) for at least 15 minutes. They were incubated with the fluorescent nuclear stain Hoechst 33342 (1 μg/ml) (Sigma) for 4 minutes and then washed extensively with PBS. After drying, the slides were mounted with Vectashield mounting medium (Vector Labs) and coverslipped. The slides could be kept in the dark for up to 6 weeks without fading.
The sections were studied under the microscope (Leica) at 400× for morphological signs of apoptosis—nuclear condensation, membrane blebbing and presence of apoptotic bodies (Trump 1997 supra). Cells were assigned as neurones or glia depending on their size, location, and general morphology. Four fields from each section were selected at random, the number of apoptotic cells and total number of cells was counted in each and then mean figures for each group were calculated. This analysis was carried out blind. […] Glial apoptosis was unaffected (results not shown).

[2] = tested on: apoptotic neurons in L5 dorsal root ganglions; assay: Neuronal apoptosis after sciatic nerve axotomy in the neonatal rat (TUNEL combined with Hoechst 33342 and immunohistochemistry); assay type: in vivo; settings: single pre-emptive injection 10 mg/kg s/c, observed at 24 hours, vs vehicle treated controls
Method: Newborn animals received a single pre-emptive injection of R(−)-2,4-diamino-5-(2,3-dichlorophenyl)-6-fluoromethyl pyrimidine, substantially free of the corresponding S(+)enantiomer (4030W92) (10 mg/kg, s/c). Twenty minutes later the animals were anaesthetised by hypothermia, the nerve exposed and transected at the mid thigh level. The extent of neuronal and glial apoptosis was investigated using the TUNEL technique combined with Hoechst 33342 (Sigma) and immunohistochemistry. The ipsilateral and contralateral L5 dorsal root ganglions were compared and the 4030W92 treated group was compared to vehicle treated controls and to animals that received an injection of 4030W92 alone, ie. no nerve transection.

[3] = tested on: mechanical hypersensitivity; assay: CCI-induced decrease in mechanical paw withdrawal threshold (algesymeter); assay type: in vivo, rat; settings: CCI rats, drug administered from day 12, algesymeter
From the text: (§1) Under isoflurane anaesthesia, the common left sciatic nerve of male Random Hooded rats (180-200 g) was exposed at mid-thigh level. Four ligatures of chromic gut (4.0) were tied loosely around the nerve with a 1 mm spacing between each. The wound was then closed and secured with suture clips. The surgical procedure was identical for the sham operated animals except the sciatic nerve was not ligated. The rats were allowed a period of seven days to recover from the surgery before behavioural testing began.
The effect on Chronic Constriction Injury-induced decrease in mechanical paw withdrawal threshold was measured using an algesymeter (Randall L O, Selitto J J. A method for measurement of analgesic activity on inflamed tissue. Arch. Int. Pharmacodyn. 1957; 61:409-419). In brief, from 7 days post surgery onwards every 2 or 3 days the animals were tested for mechanical hypersensitivity by applying an increasing weight (16 gram per second) to the dorsal surface of each hindpaw until the rat attempted to remove the paw. The increasing weight was halted at this point and the weight recorded and expressed as mechanical paw withdrawal threshold. The maximum weight applied in this model was 250 gram. Drug was administered once the hypersensitivity was maximal which in this case was at day 12.

mechanical allodynia = assay: CCI mechanical allodynia, Von Frey Hair monofilaments; assay type: in vivo, rat; settings: CCI rats, drug administered from day 12, Von Frey Hair monofilaments
From the text: as §1
The presence of mechanical allodynia was assessed using Von Frey Hair monofilaments (range:4.19-84.96 g). The rats were lightly restrained and placed upon a metal grid floor. The monofilaments were applied to the plantar surface of the hindpaws from below the grid. The lowest monofilament to produce a withdrawal was the response recorded.

[4] = tested on: motorneuronal apoptotic cell death; settings: after neonatal axotomy; cited from earlier work

| Compound | number of neurones undergoing apoptosis (FIG. 2) [1] | sensory neuronal apoptosis [1] | glial apoptosis [1] | number of apoptotic neurons [2] | mechanical paw withdrawal threshold [3] | Von Frey withdrawal threshold (mechanical allodynia) (mechanical allodynia) | motorneuronal apoptotic cell death [4] |
| --- | --- | --- | --- | --- | --- | --- | --- |
| Nc1nc(N)c(-c2cccc(Cl)c2Cl)c(CF)n1 [4082W92, S(+)-2,4-diamino-5-(2,3-dichlorophenyl)-6-fluoromethylpyrimidine] | decreases | significantly reduced sensory neuronal apoptosis | unaffected |  |  |  |  |
| Nc1nc(N)c(-c2cccc(Cl)c2Cl)c(CF)n1 (atropisomer, axis not shown) [4030W92, R(−)-2,4-diamino-5-(2,3-dichlorophenyl)-6-fluoromethyl pyrimidine] | decreases | significantly reduced sensory neuronal apoptosis | unaffected | significant reduction in the number of apoptotic neurons | significantly reversed the reduction in thresholds | significantly reversed the reduction in thresholds |  |
| Nc1nnc(-c2cccc(Cl)c2Cl)c(N)n1 [lamotrigine, 3,5-diamino-6-(2,3-dichlorophenyl)-1,2,4-triazine] |  |  |  |  |  |  | can prevent motorneuronal apoptotic cell death |

From patent US6548507B1, “Medical use” (SmithKline Beecham Corporation, priority 1999, dated 2003)
